Test results published in PMC10447463, “Data-mining unveils structure–property–activity correlation of viral infectivity enhancing self-assembling peptides” (Nature Communications, 2023).
Like-named read-outs stand apart in the source and are kept apart here.

Columns and labels:
[1] = test system: HIV-1 infection of TZM-bl cells; experiment: HIV-1 infectivity enhancement assay, β-galactosidase luminescence; type: cell-based; settings: for Rel-EFC / Log10 Infection Rel EFC: 1.3 µM peptide; for Rel-EFC: infection relative to EF-C (QCKIKQIINMWQ = 1); for Log10 Infection Rel EFC: log10 of infection relative to EF-C; for Log Infectivity: Log10 infection relative to EF-C, TZM-bl cells, asymmetric std dev errors; for Log10 Infection Rel EF-C: HIV-1 infection of TZM-bl cells; for Log10 of Rel to EFC (Feb2021): Log10 of infection relative to EF-C, all peptides of FigS16; for Abs. Inf.: absolute infection signal, HIV-1 on TZM-bl cells, β-galactosidase luminescence; for Log10 Inf. rel. to EF-C: log10 of HIV-1 infection of TZM-bl cells relative to EF-C (EF-C = 0)
[2] = type: physicochemical; settings: for ThT Cat. / ThT-Fluorescence (categorical): ThT-active if fluorescence at least twice the control
Procedure, shortened: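 Preformed peptide fibrils (1 mg/mL) mixed with 50 µM ThT in PBS, 15 min at RT, fluorescence ex 440/em 488 nm versus PBS blank, triplicates. Zeta potential: peptides at 1 mg/mL in PBS pH 7.4, aged 1 d at RT, diluted in 1 mM KCl, Smoluchowski from electrophoretic mobility.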

[3] = β-sheet content by ATR-FT-IR; type: physicochemical; settings: Fig. S7 panel A; β-sheet content by ATR-FT-IR
Procedure, shortened: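 β-sheet content came from ATR FT-IR spectra of lyophilized 1 mg/mL nanofibril solution (64 scans, 2 cm^-1 resolution). Conversion was measured by separating free monomer with a 3 kDa cutoff filter, then comparing fluorescamine fluorescence (ex 365/em 470 nm, 20 min RT) of filtrate versus unfiltered sample, in triplicate.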

[4] = Fig. S7 panel A (plotted against β-sheet content)
[5] = Log10 of infection rate relative to EF-C, Figure 3A source data
[6] = infection rate relative to EF-C, log10, data of Figure 2D
[7] = infection rate relative to EF-C, log10, source data of Figure 2C
[8] = Fig. S7 panel B (plotted against CR), rounded to two decimals

Sequence | Rel-EFC [1] | Log10 Infection Rel EFC [1] | Log Infectivity [1, 4] | Log10 Infection Rel EF-C [1, 5] | Log10 Infection Rel EF-C [1, 6] | Log10 Infection Rel EF-C [1, 7] | Log10 of Rel to EFC (Feb2021) [1] | Abs. Inf. [1] | Log10 Inf. rel. to EF-C [1] | Tht category (> 2 to blank = +) ([2]; Fig S10 panel D) | ThT Cat, ([2]; ThT category, 1 if Rel. ThT >2) | ThT Cat. ([2]; ThT category, 1 if Rel. ThT >2) | ThT Cat. / ThT-Fluorescence (categorical) [2] | b -sheet / % [3] | Log Infectivity [1, 8] | ThT Cat. ([2]; Fig S10 panel E) | Tht category (> 2 to blank = +) ([2]; FigS12 panel A) | ThT Cat, ([2]; FigS12 panel B)
QCKFKFQF | 0,77 | -0,12 | -0.1152 | -0.12 | -0.1152 | -0.1152 | -0.12 | 20303.33333 | -0.1152 | 1 (ThT. Cat is 1, if Rel. ThT >2) | 1 (ThT. Cat is 1, if Rel. ThT >2) | 1 (ThT. Cat is 1, if Rel. ThT >2) | 1 (ThT. Cat is 1, if Rel. ThT >2) | 40.03% |  |  |  | 
QCKFKFQFNM | 0,51 | -0,29 | -0.2906 | -0.29 | -0.2906 | -0.2906 | -0.29 | 16353.33333 | -0.2906 | 1 (ThT. Cat is 1, if Rel. ThT >2) | 1 (ThT. Cat is 1, if Rel. ThT >2) | 1 (ThT. Cat is 1, if Rel. ThT >2) | 1 (ThT. Cat is 1, if Rel. ThT >2) | 37.29% | -0.29 | 1 (ThT. Cat is 1, if Rel. ThT >2) |  | 
QCKFKFQFNMWQ | 0,62 | -0,21 | -0.2086 | -0.21 | -0.2086 | -0.2086 | -0.21 | 19753.33333 | -0.2086 | 0 (ThT-inactive (N-Fold <2)) | 0 (ThT-inactive (N-Fold <2)) | 0 (ThT-inactive (N-Fold <2)) | 0 (ThT-inactive (N-Fold <2)) | 47.0491% | -0.21 |  |  | 
QCKIKIQI | 0,11 | -0,95 | -0.9508 | -0.95 | -0.9508 | -0.9508 | -0.95 | 3577 | -0.9508 | 1 (ThT. Cat is 1, if Rel. ThT >2) | 1 (ThT. Cat is 1, if Rel. ThT >2) | 1 (ThT. Cat is 1, if Rel. ThT >2) | 1 (ThT. Cat is 1, if Rel. ThT >2) | 35.27% |  |  |  | 
QCKIKIQINMWQ | 1,04 | 0,02 | 0.01546 | 0.02 | 0.01546 | 0.01546 | 0.02 | 21221.11111 | 0.01546 | 1 (ThT. Cat is 1, if Rel. ThT >2) | 1 (ThT. Cat is 1, if Rel. ThT >2) | 1 (ThT. Cat is 1, if Rel. ThT >2) | 1 (ThT. Cat is 1, if Rel. ThT >2) | 36.23% | 0.02 | 1 (ThT. Cat is 1, if Rel. ThT >2) |  | 
QCKIKQII | 0,01 | -2,19 | -2.189 | -2.19 | -2.189 | -2.189 |  | 206.7 | -2.189 | 1 (ThT. Cat is 1, if Rel. ThT >2) | 1 (ThT. Cat is 1, if Rel. ThT >2) | 1 (ThT. Cat is 1, if Rel. ThT >2) | 1 (ThT. Cat is 1, if Rel. ThT >2) | 40.51% |  |  | 1 (ThT. Cat is 1, if Rel. ThT >2) | 1 (ThT. Cat is 1, if Rel. ThT >2)
QCKIKQIINM | 0,35 | -0,46 | -0.4555 | -0.46 | -0.4555 | -0.4555 | -0.46 | 11186.66667 | -0.4555 | 1 (ThT. Cat is 1, if Rel. ThT >2) | 1 (ThT. Cat is 1, if Rel. ThT >2) | 1 (ThT. Cat is 1, if Rel. ThT >2) | 1 (ThT. Cat is 1, if Rel. ThT >2) | 38.44% |  |  |  | 
